Measurements reported in PMC5564600 (Oncotarget, 2017).

Experiments:
Experiment in all cases: biochemical
Format in all cases: binding
panel of 442 kinases [1] = target: T1, panel of 442 kinases (Homo sapiens, UniProt P49137); settings: kinase MAPKAPK2; for remaining activity at 1 µM: read-out: % of control at 1 µM
T1 construct: purchased Ambit Biosciences (scanMAXX KINOMEscan)

panel of 442 kinases [2] = target: T2, panel of 442 kinases (Homo sapiens, UniProt O14920); settings: kinase IKK-beta; for remaining activity at 1 µM: read-out: % of control at 1 µM
T2 construct: purchased Ambit Biosciences (scanMAXX KINOMEscan)
T2 sequence (O14920 1-756): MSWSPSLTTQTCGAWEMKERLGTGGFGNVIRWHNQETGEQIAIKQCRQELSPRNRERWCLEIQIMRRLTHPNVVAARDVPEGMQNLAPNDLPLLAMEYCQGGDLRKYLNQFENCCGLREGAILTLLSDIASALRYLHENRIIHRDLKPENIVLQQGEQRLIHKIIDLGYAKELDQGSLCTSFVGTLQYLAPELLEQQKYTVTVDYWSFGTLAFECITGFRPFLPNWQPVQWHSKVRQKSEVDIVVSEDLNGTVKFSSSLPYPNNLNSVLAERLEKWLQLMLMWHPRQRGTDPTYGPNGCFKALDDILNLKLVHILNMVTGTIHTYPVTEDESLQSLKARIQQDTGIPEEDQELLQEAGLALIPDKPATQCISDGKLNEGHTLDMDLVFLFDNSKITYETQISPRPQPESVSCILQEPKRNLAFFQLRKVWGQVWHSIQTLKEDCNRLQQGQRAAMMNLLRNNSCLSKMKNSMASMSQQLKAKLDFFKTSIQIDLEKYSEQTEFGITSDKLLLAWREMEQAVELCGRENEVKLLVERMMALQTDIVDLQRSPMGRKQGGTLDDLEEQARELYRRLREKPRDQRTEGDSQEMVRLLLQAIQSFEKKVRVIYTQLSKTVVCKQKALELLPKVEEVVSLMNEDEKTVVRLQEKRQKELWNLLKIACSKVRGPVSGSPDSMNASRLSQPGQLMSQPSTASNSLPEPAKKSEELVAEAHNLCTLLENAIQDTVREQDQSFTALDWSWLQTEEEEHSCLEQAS

panel of 442 kinases [3] = target: T3, panel of 442 kinases (Homo sapiens, UniProt P45984); settings: kinase JNK2; for remaining activity at 1 µM: read-out: % of control at 1 µM
T3 construct: purchased Ambit Biosciences (scanMAXX KINOMEscan)

panel of 442 kinases [4] = target: T4, panel of 442 kinases (Homo sapiens, UniProt O94804); settings: kinase LOK; for remaining activity at 1 µM: read-out: % of control at 1 µM
T4 construct: purchased Ambit Biosciences (scanMAXX KINOMEscan)
T4 sequence (O94804 whole entry): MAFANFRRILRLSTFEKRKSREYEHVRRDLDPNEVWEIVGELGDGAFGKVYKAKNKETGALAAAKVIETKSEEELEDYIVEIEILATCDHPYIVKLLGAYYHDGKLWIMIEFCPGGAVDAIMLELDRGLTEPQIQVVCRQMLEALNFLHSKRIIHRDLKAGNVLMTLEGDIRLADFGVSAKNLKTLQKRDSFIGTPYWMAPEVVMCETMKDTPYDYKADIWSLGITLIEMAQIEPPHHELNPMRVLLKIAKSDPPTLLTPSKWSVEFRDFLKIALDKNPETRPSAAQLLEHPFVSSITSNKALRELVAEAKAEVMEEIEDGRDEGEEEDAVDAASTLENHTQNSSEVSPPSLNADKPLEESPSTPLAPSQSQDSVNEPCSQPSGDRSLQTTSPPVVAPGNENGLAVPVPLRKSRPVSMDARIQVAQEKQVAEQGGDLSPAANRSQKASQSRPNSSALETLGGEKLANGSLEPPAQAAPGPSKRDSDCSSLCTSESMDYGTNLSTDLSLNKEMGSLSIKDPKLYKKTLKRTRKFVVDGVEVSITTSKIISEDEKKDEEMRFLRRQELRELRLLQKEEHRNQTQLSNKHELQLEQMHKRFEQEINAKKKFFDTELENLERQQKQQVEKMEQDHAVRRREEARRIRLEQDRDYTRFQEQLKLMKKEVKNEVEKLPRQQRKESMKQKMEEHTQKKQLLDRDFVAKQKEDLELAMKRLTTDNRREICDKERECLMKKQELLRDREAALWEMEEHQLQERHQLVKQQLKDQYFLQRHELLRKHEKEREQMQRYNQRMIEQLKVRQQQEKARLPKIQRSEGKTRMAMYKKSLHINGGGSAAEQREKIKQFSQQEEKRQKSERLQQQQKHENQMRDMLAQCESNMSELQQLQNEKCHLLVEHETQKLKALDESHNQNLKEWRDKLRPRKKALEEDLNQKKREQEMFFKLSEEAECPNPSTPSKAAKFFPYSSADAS

panel of 442 kinases [5] = target: T5, panel of 442 kinases (Homo sapiens, UniProt P51957); settings: kinase NEK4; for remaining activity at 1 µM: read-out: % of control at 1 µM
T5 construct: purchased Ambit Biosciences (scanMAXX KINOMEscan)

panel of 442 kinases [6] = target: T6, panel of 442 kinases (Homo sapiens, UniProt Q52WX2); settings: kinase SBK1; for remaining activity at 1 µM: read-out: SBK1 (% of control at 1 µM)
T6 construct: purchased Ambit Biosciences (scanMAXX KINOMEscan)
T6 sequence (Q52WX2 whole entry): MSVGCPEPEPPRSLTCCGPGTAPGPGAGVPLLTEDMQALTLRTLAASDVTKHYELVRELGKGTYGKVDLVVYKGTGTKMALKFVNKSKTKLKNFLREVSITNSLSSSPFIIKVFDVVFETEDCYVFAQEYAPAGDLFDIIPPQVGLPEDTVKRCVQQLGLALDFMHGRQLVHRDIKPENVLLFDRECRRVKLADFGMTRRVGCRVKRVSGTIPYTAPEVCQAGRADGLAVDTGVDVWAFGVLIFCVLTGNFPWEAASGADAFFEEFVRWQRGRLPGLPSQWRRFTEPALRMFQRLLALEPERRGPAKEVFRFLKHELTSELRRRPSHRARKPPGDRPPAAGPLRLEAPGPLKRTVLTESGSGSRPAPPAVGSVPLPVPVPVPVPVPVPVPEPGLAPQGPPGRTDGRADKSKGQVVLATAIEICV

panel of 442 kinases [7] = target: T7, panel of 442 kinases (Mycobacterium tuberculosis, UniProt P9WI81); settings: for remaining activity at 1 µM: read-out: PKNB(M.tuberculosis) (% of control at 1 µM); for remaining activity at 10 µM: read-out: PKNB(M.tuberculosis) (% of control at 10 µM)
T7 construct: purchased Ambit Biosciences (scanMAXX KINOMEscan)
T7 sequence (P9WI81 whole entry): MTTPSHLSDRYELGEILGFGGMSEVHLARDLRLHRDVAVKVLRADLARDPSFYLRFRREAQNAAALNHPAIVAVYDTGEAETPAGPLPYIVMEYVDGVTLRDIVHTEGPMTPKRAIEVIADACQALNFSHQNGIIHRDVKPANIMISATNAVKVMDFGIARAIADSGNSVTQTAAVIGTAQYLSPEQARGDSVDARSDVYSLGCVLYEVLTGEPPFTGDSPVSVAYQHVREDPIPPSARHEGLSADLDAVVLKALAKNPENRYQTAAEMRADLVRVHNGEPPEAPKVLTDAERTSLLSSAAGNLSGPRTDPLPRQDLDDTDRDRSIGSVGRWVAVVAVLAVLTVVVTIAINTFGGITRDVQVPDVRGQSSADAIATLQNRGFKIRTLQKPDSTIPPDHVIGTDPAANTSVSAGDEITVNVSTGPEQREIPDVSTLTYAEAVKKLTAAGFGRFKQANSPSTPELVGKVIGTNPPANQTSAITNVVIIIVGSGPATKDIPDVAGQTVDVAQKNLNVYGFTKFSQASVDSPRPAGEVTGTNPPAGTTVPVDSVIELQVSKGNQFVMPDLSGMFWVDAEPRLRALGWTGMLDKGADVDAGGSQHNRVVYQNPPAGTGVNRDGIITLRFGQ

panel of 442 kinases [8] = target: T8, panel of 442 kinases (Homo sapiens, UniProt P51451); settings: BLK; for remaining activity at 1 µM: read-out: % of control at 1 µM
T8 construct: purchased Ambit Biosciences (scanMAXX KINOMEscan)
T8 sequence (P51451 whole entry): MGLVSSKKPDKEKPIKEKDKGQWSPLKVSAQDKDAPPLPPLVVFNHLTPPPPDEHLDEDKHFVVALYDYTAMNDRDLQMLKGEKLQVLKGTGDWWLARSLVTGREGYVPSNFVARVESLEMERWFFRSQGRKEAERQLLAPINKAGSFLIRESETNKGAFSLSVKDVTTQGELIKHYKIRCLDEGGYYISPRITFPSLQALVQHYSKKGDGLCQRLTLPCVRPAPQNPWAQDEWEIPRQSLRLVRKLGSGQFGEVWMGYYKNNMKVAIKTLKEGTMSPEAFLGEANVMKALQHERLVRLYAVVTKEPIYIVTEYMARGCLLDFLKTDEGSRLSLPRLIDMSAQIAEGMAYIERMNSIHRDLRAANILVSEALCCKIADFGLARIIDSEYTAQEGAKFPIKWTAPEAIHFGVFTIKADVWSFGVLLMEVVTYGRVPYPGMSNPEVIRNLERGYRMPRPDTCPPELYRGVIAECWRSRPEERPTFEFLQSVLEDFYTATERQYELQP

panel of 442 kinases [9] = target: T9, panel of 442 kinases (Homo sapiens, UniProt Q99755); settings: kinase PIP5K1A; for remaining activity at 1 µM: read-out: % of control at 1 µM
T9 construct: purchased Ambit Biosciences (scanMAXX KINOMEscan)

panel of 442 kinases [10] = target: T10, panel of 442 kinases (Homo sapiens, UniProt P30291); settings: kinase WEE1; for remaining activity at 1 µM: read-out: WEE1 (% of control at 1 µM)
T10 construct: purchased Ambit Biosciences (scanMAXX KINOMEscan)
T10 sequence (P30291 whole entry): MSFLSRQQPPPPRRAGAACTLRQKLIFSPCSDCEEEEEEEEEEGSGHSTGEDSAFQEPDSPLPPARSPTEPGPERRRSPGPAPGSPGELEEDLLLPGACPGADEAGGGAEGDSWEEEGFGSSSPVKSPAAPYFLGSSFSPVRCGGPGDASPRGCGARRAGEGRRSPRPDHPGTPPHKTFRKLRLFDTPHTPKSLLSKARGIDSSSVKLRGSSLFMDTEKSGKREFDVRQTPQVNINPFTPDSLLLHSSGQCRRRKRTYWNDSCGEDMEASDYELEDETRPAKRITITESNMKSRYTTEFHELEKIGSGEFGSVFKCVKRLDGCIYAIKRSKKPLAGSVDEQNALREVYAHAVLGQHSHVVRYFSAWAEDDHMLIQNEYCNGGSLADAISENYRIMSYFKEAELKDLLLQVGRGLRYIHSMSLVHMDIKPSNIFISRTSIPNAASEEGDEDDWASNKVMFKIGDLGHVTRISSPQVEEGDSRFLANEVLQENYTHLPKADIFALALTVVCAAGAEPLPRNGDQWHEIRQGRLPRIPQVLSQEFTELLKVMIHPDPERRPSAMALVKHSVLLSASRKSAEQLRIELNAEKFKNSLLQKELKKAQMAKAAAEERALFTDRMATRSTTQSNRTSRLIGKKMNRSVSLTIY

panel of 442 kinases [11] = target: T11, panel of 442 kinases (Homo sapiens, UniProt Q86Y07); settings: kinase VRK2; for remaining activity at 1 µM: read-out: VRK2 (% of control at 1 µM)
T11 construct: purchased Ambit Biosciences (scanMAXX KINOMEscan)
T11 sequence (Q86Y07 whole entry): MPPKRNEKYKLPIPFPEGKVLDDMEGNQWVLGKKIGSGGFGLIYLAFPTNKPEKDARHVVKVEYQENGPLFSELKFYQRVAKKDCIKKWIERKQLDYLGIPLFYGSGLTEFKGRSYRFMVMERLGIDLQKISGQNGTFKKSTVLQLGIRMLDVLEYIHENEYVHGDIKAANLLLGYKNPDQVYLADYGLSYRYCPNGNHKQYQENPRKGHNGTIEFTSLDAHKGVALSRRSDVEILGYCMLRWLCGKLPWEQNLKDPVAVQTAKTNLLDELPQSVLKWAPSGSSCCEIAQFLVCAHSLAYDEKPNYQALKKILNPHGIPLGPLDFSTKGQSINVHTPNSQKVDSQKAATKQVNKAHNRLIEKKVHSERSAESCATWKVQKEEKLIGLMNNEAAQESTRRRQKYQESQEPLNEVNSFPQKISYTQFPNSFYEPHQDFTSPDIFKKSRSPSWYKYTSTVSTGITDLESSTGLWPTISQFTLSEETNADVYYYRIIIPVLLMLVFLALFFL

panel of 442 kinases [12] = target: T12, panel of 442 kinases (Homo sapiens, UniProt P07947); settings: kinase YES; for remaining activity at 1 µM: read-out: YES (% of control at 1 µM)
T12 construct: purchased Ambit Biosciences (scanMAXX KINOMEscan)

panel of 442 kinases [13] = target: T13, panel of 442 kinases (Homo sapiens, UniProt Q86UE8); settings: kinase TLK2; for remaining activity at 1 µM: read-out: TLK2 (% of control at 1 µM)
T13 construct: purchased Ambit Biosciences (scanMAXX KINOMEscan)

panel of 442 kinases [14] = target: T14, panel of 442 kinases (Homo sapiens, UniProt Q12852); settings: DLK; for remaining activity at 1 µM: read-out: % of control at 1 µM
T14 construct: purchased Ambit Biosciences (scanMAXX KINOMEscan)
T14 sequence (Q12852 1-859): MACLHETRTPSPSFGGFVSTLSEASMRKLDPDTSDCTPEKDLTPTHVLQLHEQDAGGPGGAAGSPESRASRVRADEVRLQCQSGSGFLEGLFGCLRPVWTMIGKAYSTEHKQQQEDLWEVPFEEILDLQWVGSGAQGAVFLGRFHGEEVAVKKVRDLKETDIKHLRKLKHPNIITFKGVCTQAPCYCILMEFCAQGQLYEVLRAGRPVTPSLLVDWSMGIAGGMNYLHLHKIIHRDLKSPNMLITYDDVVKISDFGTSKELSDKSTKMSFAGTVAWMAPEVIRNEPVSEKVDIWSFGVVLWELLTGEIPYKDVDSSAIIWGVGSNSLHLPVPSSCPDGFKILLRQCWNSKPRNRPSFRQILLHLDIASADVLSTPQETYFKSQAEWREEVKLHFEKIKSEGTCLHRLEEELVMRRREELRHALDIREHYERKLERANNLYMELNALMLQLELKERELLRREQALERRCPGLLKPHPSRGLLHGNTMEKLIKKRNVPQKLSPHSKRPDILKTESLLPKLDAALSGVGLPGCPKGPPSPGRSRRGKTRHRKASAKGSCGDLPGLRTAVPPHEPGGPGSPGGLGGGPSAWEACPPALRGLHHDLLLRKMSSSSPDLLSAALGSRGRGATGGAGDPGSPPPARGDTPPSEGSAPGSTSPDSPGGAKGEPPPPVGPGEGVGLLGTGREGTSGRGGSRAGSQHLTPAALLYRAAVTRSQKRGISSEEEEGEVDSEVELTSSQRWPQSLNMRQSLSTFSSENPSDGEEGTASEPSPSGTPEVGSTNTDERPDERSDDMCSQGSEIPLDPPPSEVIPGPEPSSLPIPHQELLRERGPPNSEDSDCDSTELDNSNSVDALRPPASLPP

panel of 442 kinases [15] = target: T15, panel of 442 kinases (Homo sapiens, UniProt P48736); settings: kinase PIK3CG; 1 µM; read-out: % of control at 1 µM
T15 construct: purchased Ambit Biosciences (scanMAXX KINOMEscan)
T15 sequence (P48736 whole entry): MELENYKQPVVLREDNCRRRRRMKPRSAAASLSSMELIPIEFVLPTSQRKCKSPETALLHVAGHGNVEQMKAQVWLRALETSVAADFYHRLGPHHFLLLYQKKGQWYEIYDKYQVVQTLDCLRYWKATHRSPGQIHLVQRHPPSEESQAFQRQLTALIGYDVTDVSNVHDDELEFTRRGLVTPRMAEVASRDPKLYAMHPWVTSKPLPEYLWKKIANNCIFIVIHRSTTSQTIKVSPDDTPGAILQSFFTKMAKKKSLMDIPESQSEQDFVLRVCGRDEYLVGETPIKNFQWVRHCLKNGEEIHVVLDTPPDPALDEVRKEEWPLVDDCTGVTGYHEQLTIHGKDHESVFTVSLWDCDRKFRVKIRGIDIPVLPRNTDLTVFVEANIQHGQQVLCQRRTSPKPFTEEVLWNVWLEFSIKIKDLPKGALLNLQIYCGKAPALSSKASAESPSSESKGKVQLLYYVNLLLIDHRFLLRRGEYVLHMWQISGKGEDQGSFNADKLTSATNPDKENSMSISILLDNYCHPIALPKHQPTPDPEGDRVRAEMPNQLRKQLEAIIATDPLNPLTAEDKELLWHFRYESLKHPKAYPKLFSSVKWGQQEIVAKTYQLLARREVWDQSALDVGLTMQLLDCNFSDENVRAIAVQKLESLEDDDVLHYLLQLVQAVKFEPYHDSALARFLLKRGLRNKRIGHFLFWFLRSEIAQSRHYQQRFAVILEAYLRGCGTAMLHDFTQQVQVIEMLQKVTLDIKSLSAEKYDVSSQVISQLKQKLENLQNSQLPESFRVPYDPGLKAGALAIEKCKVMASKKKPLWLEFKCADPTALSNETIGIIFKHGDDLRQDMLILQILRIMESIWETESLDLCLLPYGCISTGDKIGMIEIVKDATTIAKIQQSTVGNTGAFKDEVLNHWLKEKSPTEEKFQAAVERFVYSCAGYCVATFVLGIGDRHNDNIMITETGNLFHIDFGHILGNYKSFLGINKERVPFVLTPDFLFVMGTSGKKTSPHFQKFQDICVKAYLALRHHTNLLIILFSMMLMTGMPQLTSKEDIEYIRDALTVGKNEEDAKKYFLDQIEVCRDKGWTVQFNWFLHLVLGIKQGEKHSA

[16] = 10 µM, read-out: % of control at 10 µM

Row | SMILES | remaining activity at 1 µM (panel of 442 kinases [1]) [%] | remaining activity at 1 µM (panel of 442 kinases [2]) [%] | remaining activity at 1 µM (panel of 442 kinases [3]) [%] | remaining activity at 1 µM (panel of 442 kinases [4]) [%] | remaining activity at 1 µM (panel of 442 kinases [5]) [%] | remaining activity at 1 µM (panel of 442 kinases [6]) [%] | remaining activity at 1 µM (panel of 442 kinases [7]) [%] | remaining activity at 10 µM (panel of 442 kinases [7]) [%] | remaining activity at 1 µM (panel of 442 kinases [8]) [%] | remaining activity at 1 µM (panel of 442 kinases [9]) [%] | remaining activity at 1 µM (panel of 442 kinases [10]) [%] | remaining activity at 1 µM (panel of 442 kinases [11]) [%] | remaining activity at 1 µM (panel of 442 kinases [12]) [%] | remaining activity at 1 µM (panel of 442 kinases [13]) [%] | remaining activity at 1 µM (panel of 442 kinases [14]) [%] | remaining activity at 1 µM (panel of 442 kinases [15]) [%] | also measured
1 | Nc1cc(C(F)(F)F)c(-c2cc(N3CCOCC3)nc(N3CCOCC3)n2)cn1 [Buparlisib] | 100 | 92 | 100 | 92 | 77 | 94 | 100 | 73 | 93 | 100 | 100 | 83 | 100 | 100 | 94 |  | remaining activity at 10 µM (panel of 442 kinases [1]; [16]): 100%; remaining activity at 10 µM (panel of 442 kinases [2]; [16]): 100%; remaining activity at 10 µM (panel of 442 kinases [3]; [16]): 100%; remaining activity at 10 µM (panel of 442 kinases [4]; [16]): 100%; remaining activity at 10 µM (panel of 442 kinases [5]; [16]): 99%; remaining activity at 10 µM (panel of 442 kinases [6]; 10 µM, read-out: SBK1 (% of control at 10 µM)): 100%; remaining activity at 10 µM (panel of 442 kinases [8]; [16]): 100%; remaining activity at 10 µM (panel of 442 kinases [9]; [16]): 100%; remaining activity at 10 µM (panel of 442 kinases [10]; 10 µM, read-out: WEE1 (% of control at 10 µM)): 100%; remaining activity at 10 µM (panel of 442 kinases [11]; 10 µM, read-out: VRK2 (% of control at 10 µM)): 100%; remaining activity at 10 µM (panel of 442 kinases [12]; 10 µM, read-out: YES (% of control at 10 µM)): 100%; remaining activity at 10 µM (panel of 442 kinases [13]; 10 µM, read-out: TLK2 (% of control at 10 µM)): 100%; remaining activity at 10 µM (panel of 442 kinases [14]; [16]): 100%
2 | COc1ncc(-c2ccc3nccc(-c4ccnnc4)c3c2)cc1NS(=O)(=O)c1ccc(F)cc1F [Omipalisib] | 100 | 100 | 100 | 100 | 100 | 100 | 67 |  | 94 | 100 | 100 | 100 | 100 | 100 | 63 | 0 | 
3 | FC(F)c1nc2ccccc2n1-c1nc(N2CCOCC2)nc(N2CCOCC2)n1 [ZSTK474, 2-(difluoromethyl)-1-[4,6-di(4-morpholinyl)-1,3,5-triazin-2-yl]-1H-benzimidazole] | 99 | 88 | 100 | 100 | 100 | 100 | 86 |  | 100 | 100 | 100 | 100 | 100 | 100 | 100 | 0 | 
4 | CS(=O)(=O)N1CCN(Cc2cc3nc(-c4cccc5[nH]ncc45)nc(N4CCOCC4)c3s2)CC1 [Pictilisib, 2-(1H-indazol-4-yl)-6-(4-methanesulfonyl-piperazin-1-ylmethyl)-4-morpholin-4-yl-t hieno[3,2-d]pyrimidine] |  |  |  |  |  |  | 85 | 55 |  |  |  |  |  |  |  |  | 
5 | Cn1c(=O)n(-c2ccc(C(C)(C)C#N)cc2)c2c3cc(-c4cnc5ccccc5c4)ccc3ncc21 [Dactolisib, 2-methyl-2-[4-(3-methyl-2-oxo-8-quinolin-3-yl-2,3-dihydroimidazo[4,5-c]quinolin-1-yl)-phenyl] propionitrile] | 92 | 73 | 100 | 100 | 88 | 92 | 100 |  | 97 | 59 | 100 | 83 | 100 | 93 | 100 | 38 | 
